Active and inactive are the calls of the source. A value given as a limit tells only on which side of the number the result lay.

Here are results for four compounds from ChEMBL document CHEMBL1201862, “PubChem BioAssay data set” (2004).

In assay [1] the target is T1, Low molecular weight phosphotyrosine protein phosphatase (Homo sapiens, UniProt P24666).
T1 sequence (P24666 whole entry): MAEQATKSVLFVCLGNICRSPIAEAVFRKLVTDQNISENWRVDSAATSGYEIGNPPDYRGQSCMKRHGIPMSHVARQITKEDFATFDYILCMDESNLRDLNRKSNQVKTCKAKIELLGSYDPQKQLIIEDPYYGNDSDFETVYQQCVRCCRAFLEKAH
Format: functional. As to conditions: read-out: IC50_Mean.

Assay [2] deals with T2, Carboxy-terminal domain RNA polymerase II polypeptide A small phosphatase 1 (Homo sapiens, UniProt Q9GZU7).
T2 sequence (Q9GZU7 whole entry): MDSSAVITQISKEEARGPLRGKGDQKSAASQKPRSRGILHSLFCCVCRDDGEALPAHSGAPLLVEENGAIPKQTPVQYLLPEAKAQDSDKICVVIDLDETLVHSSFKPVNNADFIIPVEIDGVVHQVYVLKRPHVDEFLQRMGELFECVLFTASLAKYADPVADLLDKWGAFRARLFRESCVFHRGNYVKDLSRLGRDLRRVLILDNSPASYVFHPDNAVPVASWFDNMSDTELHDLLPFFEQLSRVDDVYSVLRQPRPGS
Kind of assay: CTDSP1 inhibitors, concentration-response, biochemical, absorbance readout, ultra-high-throughput screen actives (AID 540297). Format: functional.

Assay [3] has as its target 26S proteasome non-ATPase regulatory subunit 14 (Homo sapiens, UniProt O00487). Put plainly: inhibition of proteasome subunit RPN11 – biochemical, fluorescence polarization, uHTS hits, confirmation (AID 602368). Format: functional. (Fluorescence polarisation rises when a labelled molecule tumbles more slowly, as on binding a larger partner.)
Assay [4] addresses T1, Low molecular weight phosphotyrosine protein phosphatase. The class given is functional. As to conditions: read-out: IC50_Mean. The source holds these as a separate data set.
The target in assay [5] is T3, Tyrosine-protein phosphatase non-receptor type 22 (Homo sapiens, UniProt Q9Y2R2).
T3 sequence (Q9Y2R2 whole entry): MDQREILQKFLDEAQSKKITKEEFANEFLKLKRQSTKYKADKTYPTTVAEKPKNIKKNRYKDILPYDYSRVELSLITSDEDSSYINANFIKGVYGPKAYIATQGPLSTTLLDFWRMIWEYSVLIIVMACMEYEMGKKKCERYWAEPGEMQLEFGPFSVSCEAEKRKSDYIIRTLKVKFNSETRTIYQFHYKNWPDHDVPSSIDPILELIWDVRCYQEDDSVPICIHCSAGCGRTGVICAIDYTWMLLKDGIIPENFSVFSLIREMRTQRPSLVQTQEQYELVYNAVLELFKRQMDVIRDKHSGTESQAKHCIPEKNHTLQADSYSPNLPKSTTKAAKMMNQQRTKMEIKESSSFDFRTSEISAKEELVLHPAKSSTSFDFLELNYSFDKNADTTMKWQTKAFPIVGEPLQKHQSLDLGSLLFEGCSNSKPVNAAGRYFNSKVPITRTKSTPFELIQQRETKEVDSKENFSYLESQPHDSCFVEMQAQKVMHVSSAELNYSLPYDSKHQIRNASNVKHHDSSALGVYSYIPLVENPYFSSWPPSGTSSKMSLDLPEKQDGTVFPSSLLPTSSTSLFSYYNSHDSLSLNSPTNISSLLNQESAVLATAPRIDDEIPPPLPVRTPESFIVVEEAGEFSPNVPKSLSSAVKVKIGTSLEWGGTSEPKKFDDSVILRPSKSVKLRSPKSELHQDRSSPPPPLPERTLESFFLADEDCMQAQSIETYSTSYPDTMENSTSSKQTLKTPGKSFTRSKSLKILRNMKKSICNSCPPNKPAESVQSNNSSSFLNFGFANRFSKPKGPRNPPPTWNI
Put plainly: PTPN22 enzyme inhibitors – biochemical, fluorescence, LYP catalytic domain, selectivity assay for LMPTP inhibitor project, dose response (AID 652006). Format: functional. To be noted: read-out: IC50_Mean.

Assay [6] has as its target 72 kDa type IV collagenase (Homo sapiens, UniProt P08253). Kind of assay: Dose Response validation of uHTS RPN11 inhibitor hits using a MMP-2 Fluorescence assay. Format: functional.
In a further assay the target is Prothrombin (Bos taurus, UniProt P00735). Kind of assay: thrombin protease inhibitors – biochemical, fluorescence polarization, uHTS hits, dose response (AID 602369). Format: functional.
Another assay deals with T4, Hexokinase HKDC1 (Homo sapiens, UniProt Q2TB90).
T4 sequence (Q2TB90 whole entry): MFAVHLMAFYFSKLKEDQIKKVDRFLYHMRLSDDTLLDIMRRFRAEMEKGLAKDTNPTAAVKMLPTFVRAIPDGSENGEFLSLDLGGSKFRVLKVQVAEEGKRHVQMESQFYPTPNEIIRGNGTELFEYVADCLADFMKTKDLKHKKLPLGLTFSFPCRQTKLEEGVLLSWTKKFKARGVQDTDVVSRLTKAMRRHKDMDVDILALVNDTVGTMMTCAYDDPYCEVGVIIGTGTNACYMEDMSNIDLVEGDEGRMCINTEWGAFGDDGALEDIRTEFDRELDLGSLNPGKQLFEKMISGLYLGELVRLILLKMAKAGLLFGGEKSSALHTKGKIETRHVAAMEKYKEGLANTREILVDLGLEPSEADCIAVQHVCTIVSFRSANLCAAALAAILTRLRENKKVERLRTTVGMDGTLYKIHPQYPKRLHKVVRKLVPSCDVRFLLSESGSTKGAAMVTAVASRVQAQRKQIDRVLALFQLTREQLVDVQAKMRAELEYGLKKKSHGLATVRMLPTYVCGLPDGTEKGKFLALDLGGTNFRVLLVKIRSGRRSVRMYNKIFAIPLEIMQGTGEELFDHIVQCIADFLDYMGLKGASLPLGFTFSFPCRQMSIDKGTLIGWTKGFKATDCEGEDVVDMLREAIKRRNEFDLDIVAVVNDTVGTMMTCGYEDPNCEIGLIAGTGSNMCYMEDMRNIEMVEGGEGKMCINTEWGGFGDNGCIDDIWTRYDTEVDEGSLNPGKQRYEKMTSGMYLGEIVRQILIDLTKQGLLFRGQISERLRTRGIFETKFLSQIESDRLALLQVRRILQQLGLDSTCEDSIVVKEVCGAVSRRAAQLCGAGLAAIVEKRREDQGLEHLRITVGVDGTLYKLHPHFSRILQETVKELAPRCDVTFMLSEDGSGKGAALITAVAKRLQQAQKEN
Put plainly: inhibition of HKDC1 glucose phosphorylation – biochemical, W721R variant, dose response (AID 504729). Format: functional.

Assay [7] in a line: bead-based luminescence quenchers, dual-tagged ARNT – biochemical, AlphaScreen, cherry-pick, artefact control for ARNT-TACC3 interaction inhibitor project, dose response (AID 651705).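 Also: AlphaScreen bead proximity signal that flags compounds interfering with the detection technology; potency reflects signal decrease which marks the compound as an assay artifact.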 Format: functional. Background: Bead proximity is the source of the signal in Alpha formats.
The target of assay [8] is Histone-lysine N-methyltransferase NSD2 (Homo sapiens, UniProt O96028). The class given is biochemical.
Histone-lysine N-methyltransferase NSD2, sequence (O96028 whole entry): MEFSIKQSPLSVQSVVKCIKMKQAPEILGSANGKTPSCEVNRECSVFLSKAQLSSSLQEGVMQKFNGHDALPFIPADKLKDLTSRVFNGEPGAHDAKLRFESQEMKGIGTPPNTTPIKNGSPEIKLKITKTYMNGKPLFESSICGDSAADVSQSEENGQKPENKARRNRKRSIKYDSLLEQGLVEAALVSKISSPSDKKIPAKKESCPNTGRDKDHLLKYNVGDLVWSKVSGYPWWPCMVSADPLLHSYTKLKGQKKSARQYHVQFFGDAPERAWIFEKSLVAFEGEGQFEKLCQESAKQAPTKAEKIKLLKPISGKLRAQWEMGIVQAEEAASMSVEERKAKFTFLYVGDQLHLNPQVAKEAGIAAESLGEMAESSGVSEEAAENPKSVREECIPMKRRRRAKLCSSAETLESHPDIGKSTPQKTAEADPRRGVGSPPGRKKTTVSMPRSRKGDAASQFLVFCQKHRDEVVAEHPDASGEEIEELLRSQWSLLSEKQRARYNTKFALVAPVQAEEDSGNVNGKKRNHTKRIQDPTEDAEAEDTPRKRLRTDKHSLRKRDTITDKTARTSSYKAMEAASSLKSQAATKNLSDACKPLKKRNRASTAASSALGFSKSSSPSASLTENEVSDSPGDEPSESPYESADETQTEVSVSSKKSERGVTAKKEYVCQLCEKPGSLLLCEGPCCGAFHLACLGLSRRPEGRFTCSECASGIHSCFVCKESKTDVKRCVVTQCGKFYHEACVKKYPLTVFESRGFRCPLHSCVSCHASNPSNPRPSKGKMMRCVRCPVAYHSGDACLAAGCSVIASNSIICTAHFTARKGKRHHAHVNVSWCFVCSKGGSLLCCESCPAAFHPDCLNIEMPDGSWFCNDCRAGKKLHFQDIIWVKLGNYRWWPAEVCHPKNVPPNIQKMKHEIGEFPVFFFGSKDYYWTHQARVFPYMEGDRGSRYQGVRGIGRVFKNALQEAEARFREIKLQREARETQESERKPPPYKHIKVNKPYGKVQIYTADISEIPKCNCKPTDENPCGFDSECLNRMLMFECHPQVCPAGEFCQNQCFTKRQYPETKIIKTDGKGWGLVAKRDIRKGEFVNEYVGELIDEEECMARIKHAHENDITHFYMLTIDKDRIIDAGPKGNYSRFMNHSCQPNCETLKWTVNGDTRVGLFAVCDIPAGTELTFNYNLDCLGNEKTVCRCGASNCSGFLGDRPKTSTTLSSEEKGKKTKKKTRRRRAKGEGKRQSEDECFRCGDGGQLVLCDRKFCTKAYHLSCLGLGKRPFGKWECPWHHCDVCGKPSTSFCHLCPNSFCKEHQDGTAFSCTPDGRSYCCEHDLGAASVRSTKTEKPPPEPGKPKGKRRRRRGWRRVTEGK
The nature of assay [9]: HEK-293T cell viability reduction – luminescence, B-cell screen hits, cytotoxicity control for BCR NF-kB inhibitor project, dose response (AID 489021).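 Also: HEK-293T cells carrying an NF-kB luciferase reporter; cells exposed to compound for about 14 hours before viability readout.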 The class given is functional, cell-based.
The target of assay [10] is T5, Microphthalmia-associated transcription factor (Homo sapiens, UniProt O75030).
T5 sequence (O75030 whole entry): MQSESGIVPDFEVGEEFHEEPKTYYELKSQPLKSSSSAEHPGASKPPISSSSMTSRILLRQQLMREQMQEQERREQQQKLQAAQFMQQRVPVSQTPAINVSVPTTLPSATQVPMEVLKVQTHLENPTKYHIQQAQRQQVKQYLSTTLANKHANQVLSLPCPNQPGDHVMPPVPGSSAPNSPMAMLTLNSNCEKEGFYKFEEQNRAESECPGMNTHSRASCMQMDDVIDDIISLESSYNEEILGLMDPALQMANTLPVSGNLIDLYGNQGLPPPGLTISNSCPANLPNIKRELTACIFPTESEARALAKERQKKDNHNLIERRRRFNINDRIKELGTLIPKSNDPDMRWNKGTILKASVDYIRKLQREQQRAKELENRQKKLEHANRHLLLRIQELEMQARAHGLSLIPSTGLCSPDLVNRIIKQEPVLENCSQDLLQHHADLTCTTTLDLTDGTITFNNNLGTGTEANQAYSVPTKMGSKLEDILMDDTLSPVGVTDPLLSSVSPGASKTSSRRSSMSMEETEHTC
Put plainly: reducers of TRPM1 reporter luminescence, concentration series – cell-based, SK-MEL-5, cherry-picked, set 3, MITF inhibitor project, dose response (AID 493073).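 Also: SK-MEL-5 melanoma cells with luciferase driven by the MITF target TRPM1 promoter.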 Format: functional.

The nature of assay [11]: non-specific 3'UTR reporter inhibition in Clone20-Shn3RL – cell-based, Renilla luciferase, cherry-picked, counter-screen for Shn3 inhibitor project, dose response (AID 624133). The class given is functional. For orientation: A counterscreen serves to expose hits that act by an unwanted route or on another target.
The nature of assay [12]: reduction of Shn3 3'UTR-driven luciferase in osteoblasts – cell-based, Clone20 osteoblasts, firefly luciferase, cherry-picked, dose response (AID 624132).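 Also: firefly luciferase luminescence from reporter carrying the Shn3 3'UTR in osteoblasts.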 The class given is functional.
Assay [13] can be described thus: loss of viability in HepG2 cells – cell-based, CellTiter-Glo, cherry-picked, cytotoxicity control for Shn3 inhibitor project, dose response (AID 624134). Format: functional.
In assay [14] the target is T6, Interleukin-8 (Homo sapiens, UniProt P10145). Put plainly: Dose Response confirmation of uHTS small molecule hits for cystic fibrosis induced NFkb Inhibitors in a TNFa-induced IL8 counterscreen. Format: functional. To be noted: read-out: IC50_Mean.
T6 sequence (P10145 whole entry): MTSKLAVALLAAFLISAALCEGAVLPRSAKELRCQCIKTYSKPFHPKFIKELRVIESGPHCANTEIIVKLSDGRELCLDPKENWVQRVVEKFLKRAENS
Assay [15] concerns the target T6, Interleukin-8. Put plainly: Dose Response confirmation of uHTS small molecule hits for cystic fibrosis induced NFkb Inhibitors in a PAF-induced IL8 counterscreen. The class given is functional. As to conditions: read-out: IC50_Mean.
The nature of assay [16]: inhibition of ADAM10 peptide cleavage – biochemical, FRET peptide substrate, recombinant human ADAM10, selectivity assay for ADAM17 exosite inhibitor project, dose response (AID 743259).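 Also: ADAM10 enzyme cleaving a FRET peptide substrate.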
Assay [17] has as its target Platelet-activating factor acetylhydrolase (Mus musculus, UniProt Q60963). Put plainly: Late stage assay provider results from the probe development effort to identify inhibitors of pPAFAH: fluorescence-based dose-response biochemical gel-based competitive Activity-Based Protein Profiling (ABPP) assay for SAR compounds. The class given is functional.
For assay [18], the target named is Platelet-activating factor acetylhydrolase (Homo sapiens, UniProt Q13093). Put plainly: Late stage assay provider results from the probe development effort to identify inhibitors of plasma platelet activating factor acetylhydrolase (pPAFAH): fluorescence-based dose response biochemical gel-based competitive Activity-Based Protein Profiling (ABPP) inhibition of human pPAFAH. The class given is functional, cell-free.
Platelet-activating factor acetylhydrolase (Homo sapiens, UniProt Q13093), sequence (Q13093 whole entry): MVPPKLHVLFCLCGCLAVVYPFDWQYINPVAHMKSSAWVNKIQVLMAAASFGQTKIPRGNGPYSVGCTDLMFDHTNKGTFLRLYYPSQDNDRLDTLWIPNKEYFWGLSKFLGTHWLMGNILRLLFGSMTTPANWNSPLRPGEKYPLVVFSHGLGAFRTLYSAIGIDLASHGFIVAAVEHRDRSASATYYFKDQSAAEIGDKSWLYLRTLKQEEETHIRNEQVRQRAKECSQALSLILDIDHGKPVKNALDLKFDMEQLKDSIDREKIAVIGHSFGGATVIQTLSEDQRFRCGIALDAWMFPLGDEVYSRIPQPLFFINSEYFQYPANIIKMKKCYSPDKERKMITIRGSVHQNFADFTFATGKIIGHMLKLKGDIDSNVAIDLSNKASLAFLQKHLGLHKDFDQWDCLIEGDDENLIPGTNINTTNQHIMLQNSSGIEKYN

The target in assay [19] is Disintegrin and metalloproteinase domain-containing protein 17 (Homo sapiens, UniProt P78536). Kind of assay: exosite inhibitors of ADAM17, dose response, biochemical (AID 743260).
Disintegrin and metalloproteinase domain-containing protein 17, sequence (P78536 whole entry, the tested form may be a part): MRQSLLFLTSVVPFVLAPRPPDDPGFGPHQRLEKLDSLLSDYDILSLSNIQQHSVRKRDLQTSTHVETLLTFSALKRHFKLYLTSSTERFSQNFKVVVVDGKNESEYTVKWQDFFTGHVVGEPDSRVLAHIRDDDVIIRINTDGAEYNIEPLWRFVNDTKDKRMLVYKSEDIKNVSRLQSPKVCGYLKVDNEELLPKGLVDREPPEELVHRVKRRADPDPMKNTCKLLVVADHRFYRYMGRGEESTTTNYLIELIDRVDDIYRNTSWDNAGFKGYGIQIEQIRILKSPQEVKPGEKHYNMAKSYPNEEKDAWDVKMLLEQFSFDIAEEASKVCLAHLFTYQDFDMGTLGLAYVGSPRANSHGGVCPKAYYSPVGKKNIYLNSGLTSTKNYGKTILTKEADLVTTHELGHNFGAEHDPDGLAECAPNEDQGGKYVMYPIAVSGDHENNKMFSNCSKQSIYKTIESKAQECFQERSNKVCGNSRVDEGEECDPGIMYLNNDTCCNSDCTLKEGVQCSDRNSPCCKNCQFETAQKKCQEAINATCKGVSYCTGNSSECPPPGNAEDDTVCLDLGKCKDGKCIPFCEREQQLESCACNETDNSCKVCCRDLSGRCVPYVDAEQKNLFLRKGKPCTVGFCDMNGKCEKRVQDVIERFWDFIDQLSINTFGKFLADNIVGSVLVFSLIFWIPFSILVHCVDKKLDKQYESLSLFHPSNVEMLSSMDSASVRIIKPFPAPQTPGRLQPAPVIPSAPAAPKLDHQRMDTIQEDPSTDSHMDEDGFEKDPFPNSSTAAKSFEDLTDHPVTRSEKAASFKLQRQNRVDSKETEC

Platelet-activating factor acetylhydrolase (Mus musculus, UniProt Q60963), sequence (Q60963 whole entry): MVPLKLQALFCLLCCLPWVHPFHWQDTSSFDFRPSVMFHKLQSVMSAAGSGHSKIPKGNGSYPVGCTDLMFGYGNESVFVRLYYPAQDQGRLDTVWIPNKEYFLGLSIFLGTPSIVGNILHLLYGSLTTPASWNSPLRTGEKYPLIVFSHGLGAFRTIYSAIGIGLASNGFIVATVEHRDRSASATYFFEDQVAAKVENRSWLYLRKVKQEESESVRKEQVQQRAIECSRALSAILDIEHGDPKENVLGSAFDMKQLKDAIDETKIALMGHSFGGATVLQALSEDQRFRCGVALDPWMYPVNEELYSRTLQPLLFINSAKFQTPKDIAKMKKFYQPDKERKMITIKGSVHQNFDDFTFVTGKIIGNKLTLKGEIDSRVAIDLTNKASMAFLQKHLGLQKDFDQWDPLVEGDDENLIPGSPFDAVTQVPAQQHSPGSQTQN
72 kDa type IV collagenase, sequence (P08253 whole entry): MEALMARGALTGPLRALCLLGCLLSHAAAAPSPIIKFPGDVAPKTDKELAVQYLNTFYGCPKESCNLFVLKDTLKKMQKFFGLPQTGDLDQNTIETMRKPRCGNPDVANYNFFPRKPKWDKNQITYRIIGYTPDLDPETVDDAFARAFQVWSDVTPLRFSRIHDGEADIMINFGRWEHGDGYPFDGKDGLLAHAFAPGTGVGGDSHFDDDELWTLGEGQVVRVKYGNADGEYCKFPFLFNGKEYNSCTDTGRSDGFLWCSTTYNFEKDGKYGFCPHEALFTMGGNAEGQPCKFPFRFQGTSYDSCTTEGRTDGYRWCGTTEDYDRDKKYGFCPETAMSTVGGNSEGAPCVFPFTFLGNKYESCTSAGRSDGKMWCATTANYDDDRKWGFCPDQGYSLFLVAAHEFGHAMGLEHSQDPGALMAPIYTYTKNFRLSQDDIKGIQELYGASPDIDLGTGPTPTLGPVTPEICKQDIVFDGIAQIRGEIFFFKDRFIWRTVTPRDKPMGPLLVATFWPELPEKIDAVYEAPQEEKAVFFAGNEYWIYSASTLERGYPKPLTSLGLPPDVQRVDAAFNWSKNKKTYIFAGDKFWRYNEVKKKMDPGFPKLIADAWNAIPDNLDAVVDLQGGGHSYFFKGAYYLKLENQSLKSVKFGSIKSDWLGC
26S proteasome non-ATPase regulatory subunit 14, sequence (O00487 whole entry): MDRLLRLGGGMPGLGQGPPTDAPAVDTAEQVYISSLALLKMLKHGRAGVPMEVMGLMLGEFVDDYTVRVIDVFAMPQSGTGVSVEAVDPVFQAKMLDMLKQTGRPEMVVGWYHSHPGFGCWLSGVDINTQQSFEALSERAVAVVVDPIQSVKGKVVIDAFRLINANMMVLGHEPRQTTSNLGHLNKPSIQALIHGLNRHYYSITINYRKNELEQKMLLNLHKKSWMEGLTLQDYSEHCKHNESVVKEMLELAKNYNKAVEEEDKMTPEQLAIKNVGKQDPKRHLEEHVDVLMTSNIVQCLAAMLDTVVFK

Regarding `O=C(/C=C/c1ccccc1Cl)Nc1ccc2c(c1)C(=O)NC2=O`, the IC50 in assay [1] was 12 µM (active); in assay [2] it was 3.73 µM (active); in assay [3], 17.9 µM (active); in assay [4], 15.8 µM (active); in [5], 29 µM (inactive); in assay [6], 12 µM (active). Besides, on Prothrombin, the IC50 is 61.6 µM (active).

One may read the AC50 as the concentration giving half of the maximal activity seen. For the compound `NC1=CC(=O)C(=O)c2ccccc21` [4-AMINO-[1,2]NAPHTHOQUINONE], the IC50 on Hexokinase HKDC1 is 34 µM (inactive). Further, the AC50 was 107 µM (active) in [7] and 1.74 µM (active) in assay [8].

As for `CC(C)(C)C(=O)/C(=C/c1ccncc1)n1cncn1`, the IC50 in [9] was > 80 µM (inactive); on Interleukin-8 [14] it was 1.25 µM (active); at Interleukin-8 [15], 0.607 µM (active). The AC50 is 6.63 µM (active) in assay [10], 7.23 µM (active) in assay [11], 3.27 µM (active) in assay [12] and 16.8 µM (active) in [13].

As for `Cc1cc(N2CCN(C(=O)Oc3ccc(-c4ccccc4)cn3)CC2)c2ccccc2n1`, the IC50 in [16] is > 69.4 µM (inactive); in assay [17], 0.031 µM (active); in assay [18] it was 0.006 µM (active); in assay [19], > 69.4 µM (inactive).
